Assay results from article PMC12373846, “Hemoglobin as a pseudoperoxidase and drug target for oxidative stress-related diseases” (Signal Transduction and Targeted Therapy, 2025).

Assays:
Assay in all cases: KINOMEscan
Type in all cases: binding
Details in all cases: 10000 nM; read-out: Percent Control
RET = molecular target: T1, RET (Homo sapiens, UniProt P07949)
T1 construct: purchased DiscoverX KINOMEscan scanEDGE; Eurofins Cerep SafetyScreen87
Method: (§1) The possibility of KDS12025 on kinase off-target, the KINOMEscan panel of scanEDGE assay was conducted in DiscoverX (CA, USA) using a site-directed competition binding with the test compounds. The assay results are given in Supplementary Table 4 and experimental information is available on the DiscoverX web page (www.discoverx.com). Moreover, the Delta SafetyScreen87 panel assay was conducted in Eurofins Discovery (Cerep, France). The assay results are given in Supplementary Table 5 and experimental information is available on the DiscoverX web page (https://www.eurofinsdiscoveryservices.com).

DYRK1B = molecular target: T2, DYRK1B (Homo sapiens, UniProt Q9Y463)
T2 construct: purchased DiscoverX KINOMEscan scanEDGE; Eurofins Cerep SafetyScreen87
Method: as §1

IKK-alpha = molecular target: T3, IKK-alpha (Homo sapiens, UniProt O15111)
T3 construct: purchased DiscoverX KINOMEscan scanEDGE; Eurofins Cerep SafetyScreen87
Method: as §1

AKT1 = molecular target: T4, AKT1 (Homo sapiens, UniProt P31749)
T4 construct: purchased DiscoverX KINOMEscan scanEDGE; Eurofins Cerep SafetyScreen87
Method: as §1

CSF1R = molecular target: T5, CSF1R (Homo sapiens, UniProt P07333)
T5 construct: purchased DiscoverX KINOMEscan scanEDGE; Eurofins Cerep SafetyScreen87
Method: as §1

TIE2 = molecular target: T6, TIE2 (Homo sapiens, UniProt Q02763)
T6 construct: purchased DiscoverX KINOMEscan scanEDGE; Eurofins Cerep SafetyScreen87
Method: as §1

JNK3 = molecular target: T7, JNK3 (Homo sapiens, UniProt P53779)
T7 construct: purchased DiscoverX KINOMEscan scanEDGE; Eurofins Cerep SafetyScreen87
Method: as §1

PIM3 = molecular target: T8, PIM3 (Homo sapiens, UniProt Q86V86)
T8 construct: purchased DiscoverX KINOMEscan scanEDGE; Eurofins Cerep SafetyScreen87
Method: as §1

VEGFR2 = molecular target: T9, VEGFR2 (Homo sapiens, UniProt P35968)
T9 construct: purchased DiscoverX KINOMEscan scanEDGE; Eurofins Cerep SafetyScreen87
Method: as §1

CDK9 = molecular target: T10, CDK9 (Homo sapiens, UniProt P50750)
T10 construct: purchased DiscoverX KINOMEscan scanEDGE; Eurofins Cerep SafetyScreen87
Method: as §1

BRAF = molecular target: T11, BRAF (Homo sapiens, UniProt P15056)
T11 construct: purchased DiscoverX KINOMEscan scanEDGE; Eurofins Cerep SafetyScreen87
Method: as §1

PIK3CA = molecular target: T12, PIK3CA (Homo sapiens, UniProt P42336)
T12 construct: purchased DiscoverX KINOMEscan scanEDGE; Eurofins Cerep SafetyScreen87
Method: as §1

PLK1 = molecular target: T13, PLK1 (Homo sapiens, UniProt P53350)
T13 construct: purchased DiscoverX KINOMEscan scanEDGE; Eurofins Cerep SafetyScreen87
Method: as §1

JNK2 = molecular target: T14, JNK2 (Homo sapiens, UniProt P45984)
T14 construct: purchased DiscoverX KINOMEscan scanEDGE; Eurofins Cerep SafetyScreen87
Method: as §1

ABL1-phosphorylated = molecular target: T15, ABL1-phosphorylated (Homo sapiens, UniProt P00519)
T15 construct: purchased DiscoverX KINOMEscan scanEDGE; Eurofins Cerep SafetyScreen87
Method: as §1

MET = molecular target: T16, MET (Homo sapiens, UniProt P08581)
T16 construct: purchased DiscoverX KINOMEscan scanEDGE; Eurofins Cerep SafetyScreen87
Method: as §1

[1] = molecular target: T17, ABL1(T315I)-phosphorylated (Homo sapiens, UniProt P00519, T315I)
T17 construct: purchased DiscoverX KINOMEscan scanEDGE; Eurofins Cerep SafetyScreen87
Method: as §1

BRAF(V600E) = molecular target: T18, BRAF(V600E) (Homo sapiens, UniProt P15056, V600E)
T18 construct: purchased DiscoverX KINOMEscan scanEDGE; Eurofins Cerep SafetyScreen87
Method: as §1

ALK = molecular target: T19, ALK (Homo sapiens, UniProt Q9UM73)
T19 construct: purchased DiscoverX KINOMEscan scanEDGE; Eurofins Cerep SafetyScreen87
Method: as §1

p38-beta = molecular target: T20, p38-beta (Homo sapiens, UniProt Q15759)
T20 construct: purchased DiscoverX KINOMEscan scanEDGE; Eurofins Cerep SafetyScreen87
Method: as §1

ZAP70 = molecular target: T21, ZAP70 (Homo sapiens, UniProt P43403)
T21 construct: purchased DiscoverX KINOMEscan scanEDGE; Eurofins Cerep SafetyScreen87
Method: as §1

[2] = molecular target: T22, RSK2(Kin.Dom.1-N-terminal) (Homo sapiens, UniProt P51812)
T22 construct: RSK2(Kin.Dom.1-N-terminal); purchased DiscoverX KINOMEscan scanEDGE; Eurofins Cerep SafetyScreen87
Method: as §1

MEK2 = molecular target: T23, MEK2 (Homo sapiens, UniProt P36507)
T23 construct: purchased DiscoverX KINOMEscan scanEDGE; Eurofins Cerep SafetyScreen87
Method: as §1

PIM1 = molecular target: T24, PIM1 (Homo sapiens, UniProt P11309)
T24 construct: purchased DiscoverX KINOMEscan scanEDGE; Eurofins Cerep SafetyScreen87
Method: as §1

MLK1 = molecular target: T25, MLK1 (Homo sapiens, UniProt P80192)
T25 construct: purchased DiscoverX KINOMEscan scanEDGE; Eurofins Cerep SafetyScreen87
Method: as §1

JNK1 = molecular target: T26, JNK1 (Homo sapiens, UniProt P45983)
T26 construct: purchased DiscoverX KINOMEscan scanEDGE; Eurofins Cerep SafetyScreen87
Method: as §1

AURKA = molecular target: T27, AURKA (Homo sapiens, UniProt O14965)
T27 construct: purchased DiscoverX KINOMEscan scanEDGE; Eurofins Cerep SafetyScreen87
Method: as §1

KIT(V559D,T670I) = molecular target: T28, KIT(V559D,T670I) (Homo sapiens, UniProt P10721, T670I/V559D)
T28 construct: purchased DiscoverX KINOMEscan scanEDGE; Eurofins Cerep SafetyScreen87
Method: as §1

ULK2 = molecular target: T29, ULK2 (Homo sapiens, UniProt Q8IYT8)
T29 construct: purchased DiscoverX KINOMEscan scanEDGE; Eurofins Cerep SafetyScreen87
Method: as §1

DCAMKL1 = molecular target: T30, DCAMKL1 (Homo sapiens, UniProt O15075)
T30 construct: purchased DiscoverX KINOMEscan scanEDGE; Eurofins Cerep SafetyScreen87
Method: as §1

ERBB2 = molecular target: T31, ERBB2 (Homo sapiens, UniProt P04626)
T31 construct: purchased DiscoverX KINOMEscan scanEDGE; Eurofins Cerep SafetyScreen87
Method: as §1

FLT3 = molecular target: T32, FLT3 (Homo sapiens, UniProt P36888)
T32 construct: purchased DiscoverX KINOMEscan scanEDGE; Eurofins Cerep SafetyScreen87
Method: as §1

FAK = molecular target: T33, FAK (Homo sapiens, UniProt Q05397)
T33 construct: purchased DiscoverX KINOMEscan scanEDGE; Eurofins Cerep SafetyScreen87
Method: as §1

PRKCE = molecular target: T34, PRKCE (Homo sapiens, UniProt Q02156)
T34 construct: purchased DiscoverX KINOMEscan scanEDGE; Eurofins Cerep SafetyScreen87
Method: as §1

PAK1 = molecular target: T35, PAK1 (Homo sapiens, UniProt Q13153)
T35 construct: purchased DiscoverX KINOMEscan scanEDGE; Eurofins Cerep SafetyScreen87
Method: as §1

ERK1 = molecular target: T36, ERK1 (Homo sapiens, UniProt P27361)
T36 construct: purchased DiscoverX KINOMEscan scanEDGE; Eurofins Cerep SafetyScreen87
Method: as §1

CDK11 = molecular target: T37, CDK11 (Homo sapiens, UniProt Q9BWU1)
T37 construct: purchased DiscoverX KINOMEscan scanEDGE; Eurofins Cerep SafetyScreen87
Method: as §1

FGFR3 = molecular target: T38, FGFR3 (Homo sapiens, UniProt P22607)
T38 construct: purchased DiscoverX KINOMEscan scanEDGE; Eurofins Cerep SafetyScreen87
Method: as §1

[3] = molecular target: T39, JAK2(JH1domain-catalytic) (Homo sapiens, UniProt O60674)
T39 construct: JAK2(JH1domain-catalytic); purchased DiscoverX KINOMEscan scanEDGE; Eurofins Cerep SafetyScreen87
Method: as §1

T4 sequence (P31749 whole entry): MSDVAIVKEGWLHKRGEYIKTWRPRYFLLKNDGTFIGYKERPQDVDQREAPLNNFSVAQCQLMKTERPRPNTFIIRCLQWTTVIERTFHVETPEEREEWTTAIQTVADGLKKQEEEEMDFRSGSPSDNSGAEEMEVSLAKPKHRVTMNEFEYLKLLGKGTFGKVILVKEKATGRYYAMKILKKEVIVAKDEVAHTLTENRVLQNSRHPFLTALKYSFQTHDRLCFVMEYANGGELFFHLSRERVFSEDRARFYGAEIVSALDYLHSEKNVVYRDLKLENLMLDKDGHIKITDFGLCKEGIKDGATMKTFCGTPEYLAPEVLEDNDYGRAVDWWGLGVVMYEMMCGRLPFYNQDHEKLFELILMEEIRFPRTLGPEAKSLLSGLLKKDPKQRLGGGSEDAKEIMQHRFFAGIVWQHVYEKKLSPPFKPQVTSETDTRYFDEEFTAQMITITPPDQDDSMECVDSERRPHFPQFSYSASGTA
T21 sequence (P43403 whole entry): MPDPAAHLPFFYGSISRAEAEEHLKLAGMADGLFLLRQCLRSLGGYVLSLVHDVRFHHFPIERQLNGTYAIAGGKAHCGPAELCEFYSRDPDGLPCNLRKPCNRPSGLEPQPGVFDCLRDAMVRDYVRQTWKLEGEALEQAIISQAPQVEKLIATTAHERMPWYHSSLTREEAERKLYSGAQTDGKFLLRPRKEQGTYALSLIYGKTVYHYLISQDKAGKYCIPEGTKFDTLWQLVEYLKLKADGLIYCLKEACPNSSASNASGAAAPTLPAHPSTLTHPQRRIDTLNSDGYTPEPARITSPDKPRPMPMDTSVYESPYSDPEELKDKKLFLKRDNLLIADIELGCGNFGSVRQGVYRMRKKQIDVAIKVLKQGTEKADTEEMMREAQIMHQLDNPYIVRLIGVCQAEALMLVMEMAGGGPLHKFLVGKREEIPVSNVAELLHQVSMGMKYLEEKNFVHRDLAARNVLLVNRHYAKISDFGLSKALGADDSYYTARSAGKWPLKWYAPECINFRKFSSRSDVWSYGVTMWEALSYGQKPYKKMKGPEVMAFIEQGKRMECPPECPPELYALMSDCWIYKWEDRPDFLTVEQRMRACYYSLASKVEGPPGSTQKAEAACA
T22 sequence (P51812 1-397 limits assumed): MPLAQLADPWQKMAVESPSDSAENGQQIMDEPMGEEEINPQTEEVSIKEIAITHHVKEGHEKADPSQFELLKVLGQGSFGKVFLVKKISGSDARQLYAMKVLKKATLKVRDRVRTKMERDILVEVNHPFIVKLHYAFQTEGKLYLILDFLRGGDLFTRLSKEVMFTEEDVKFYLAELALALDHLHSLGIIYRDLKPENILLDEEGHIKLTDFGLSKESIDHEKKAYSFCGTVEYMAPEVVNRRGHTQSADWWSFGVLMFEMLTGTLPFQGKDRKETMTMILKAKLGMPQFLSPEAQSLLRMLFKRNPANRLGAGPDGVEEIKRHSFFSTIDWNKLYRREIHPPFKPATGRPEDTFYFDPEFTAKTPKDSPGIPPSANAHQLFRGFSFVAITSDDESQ
T7 sequence (P53779 whole entry): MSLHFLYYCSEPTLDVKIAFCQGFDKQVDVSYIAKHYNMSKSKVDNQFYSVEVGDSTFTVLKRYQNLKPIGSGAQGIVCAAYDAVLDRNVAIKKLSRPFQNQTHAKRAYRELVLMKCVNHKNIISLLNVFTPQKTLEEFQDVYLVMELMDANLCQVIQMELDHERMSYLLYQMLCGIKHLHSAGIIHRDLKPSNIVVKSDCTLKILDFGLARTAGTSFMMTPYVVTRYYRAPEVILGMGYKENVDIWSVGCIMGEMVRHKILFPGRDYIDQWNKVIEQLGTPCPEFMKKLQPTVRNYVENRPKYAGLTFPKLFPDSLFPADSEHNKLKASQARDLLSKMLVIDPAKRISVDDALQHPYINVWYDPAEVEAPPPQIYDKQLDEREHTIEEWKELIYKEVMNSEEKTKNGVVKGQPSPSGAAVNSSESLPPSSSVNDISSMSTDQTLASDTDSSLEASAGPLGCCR
T30 sequence (O15075 whole entry): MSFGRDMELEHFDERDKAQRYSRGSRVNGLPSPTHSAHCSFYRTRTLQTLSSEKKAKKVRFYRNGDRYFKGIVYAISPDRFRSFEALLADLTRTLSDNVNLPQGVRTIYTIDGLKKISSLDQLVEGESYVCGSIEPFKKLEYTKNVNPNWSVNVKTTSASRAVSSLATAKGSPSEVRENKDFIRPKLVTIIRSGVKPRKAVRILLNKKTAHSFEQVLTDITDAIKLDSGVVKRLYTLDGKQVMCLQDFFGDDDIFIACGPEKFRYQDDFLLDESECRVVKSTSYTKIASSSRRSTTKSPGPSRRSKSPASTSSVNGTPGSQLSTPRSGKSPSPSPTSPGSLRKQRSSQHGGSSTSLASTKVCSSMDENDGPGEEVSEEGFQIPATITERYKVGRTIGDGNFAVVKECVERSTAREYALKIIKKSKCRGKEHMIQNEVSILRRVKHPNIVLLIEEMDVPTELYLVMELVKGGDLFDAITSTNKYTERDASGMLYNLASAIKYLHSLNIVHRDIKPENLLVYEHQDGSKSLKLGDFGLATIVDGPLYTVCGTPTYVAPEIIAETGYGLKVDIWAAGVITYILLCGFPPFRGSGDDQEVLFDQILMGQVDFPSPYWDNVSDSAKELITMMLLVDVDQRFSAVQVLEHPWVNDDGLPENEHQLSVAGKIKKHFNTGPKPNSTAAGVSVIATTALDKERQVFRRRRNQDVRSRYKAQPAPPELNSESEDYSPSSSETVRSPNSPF
T24 sequence (P11309 whole entry): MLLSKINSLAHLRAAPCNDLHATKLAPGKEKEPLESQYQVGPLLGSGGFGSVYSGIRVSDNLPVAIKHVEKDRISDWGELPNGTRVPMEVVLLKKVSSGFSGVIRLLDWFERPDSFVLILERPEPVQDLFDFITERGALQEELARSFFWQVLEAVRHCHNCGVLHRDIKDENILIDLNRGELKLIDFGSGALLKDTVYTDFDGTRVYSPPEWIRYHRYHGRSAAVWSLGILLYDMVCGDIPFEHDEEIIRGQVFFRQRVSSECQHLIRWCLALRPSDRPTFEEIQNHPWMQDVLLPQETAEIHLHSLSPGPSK
T32 sequence (P36888 27-993): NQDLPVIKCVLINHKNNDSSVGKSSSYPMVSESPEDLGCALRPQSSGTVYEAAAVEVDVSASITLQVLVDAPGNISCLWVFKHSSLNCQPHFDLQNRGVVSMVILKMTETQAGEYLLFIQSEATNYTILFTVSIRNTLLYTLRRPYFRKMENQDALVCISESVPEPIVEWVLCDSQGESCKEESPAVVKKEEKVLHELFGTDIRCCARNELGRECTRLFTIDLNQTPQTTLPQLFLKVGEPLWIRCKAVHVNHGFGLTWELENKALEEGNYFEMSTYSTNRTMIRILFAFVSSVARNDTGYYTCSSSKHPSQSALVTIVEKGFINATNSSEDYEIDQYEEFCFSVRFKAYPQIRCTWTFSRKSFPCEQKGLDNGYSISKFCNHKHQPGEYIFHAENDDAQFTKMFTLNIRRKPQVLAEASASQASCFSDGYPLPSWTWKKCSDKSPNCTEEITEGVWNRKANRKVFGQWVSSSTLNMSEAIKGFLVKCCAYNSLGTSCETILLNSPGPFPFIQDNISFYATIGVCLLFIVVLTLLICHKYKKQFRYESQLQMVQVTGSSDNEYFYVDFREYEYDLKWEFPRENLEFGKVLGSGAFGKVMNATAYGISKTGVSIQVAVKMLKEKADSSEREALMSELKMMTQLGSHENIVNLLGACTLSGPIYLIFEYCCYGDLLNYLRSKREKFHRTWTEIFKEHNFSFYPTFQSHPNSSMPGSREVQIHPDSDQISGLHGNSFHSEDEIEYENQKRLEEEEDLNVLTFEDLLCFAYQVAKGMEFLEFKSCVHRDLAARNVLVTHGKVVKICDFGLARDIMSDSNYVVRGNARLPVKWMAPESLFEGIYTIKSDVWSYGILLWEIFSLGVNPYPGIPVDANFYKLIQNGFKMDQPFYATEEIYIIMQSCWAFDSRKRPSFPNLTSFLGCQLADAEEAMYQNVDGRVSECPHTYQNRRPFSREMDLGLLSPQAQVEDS
T38 sequence (P22607 23-806): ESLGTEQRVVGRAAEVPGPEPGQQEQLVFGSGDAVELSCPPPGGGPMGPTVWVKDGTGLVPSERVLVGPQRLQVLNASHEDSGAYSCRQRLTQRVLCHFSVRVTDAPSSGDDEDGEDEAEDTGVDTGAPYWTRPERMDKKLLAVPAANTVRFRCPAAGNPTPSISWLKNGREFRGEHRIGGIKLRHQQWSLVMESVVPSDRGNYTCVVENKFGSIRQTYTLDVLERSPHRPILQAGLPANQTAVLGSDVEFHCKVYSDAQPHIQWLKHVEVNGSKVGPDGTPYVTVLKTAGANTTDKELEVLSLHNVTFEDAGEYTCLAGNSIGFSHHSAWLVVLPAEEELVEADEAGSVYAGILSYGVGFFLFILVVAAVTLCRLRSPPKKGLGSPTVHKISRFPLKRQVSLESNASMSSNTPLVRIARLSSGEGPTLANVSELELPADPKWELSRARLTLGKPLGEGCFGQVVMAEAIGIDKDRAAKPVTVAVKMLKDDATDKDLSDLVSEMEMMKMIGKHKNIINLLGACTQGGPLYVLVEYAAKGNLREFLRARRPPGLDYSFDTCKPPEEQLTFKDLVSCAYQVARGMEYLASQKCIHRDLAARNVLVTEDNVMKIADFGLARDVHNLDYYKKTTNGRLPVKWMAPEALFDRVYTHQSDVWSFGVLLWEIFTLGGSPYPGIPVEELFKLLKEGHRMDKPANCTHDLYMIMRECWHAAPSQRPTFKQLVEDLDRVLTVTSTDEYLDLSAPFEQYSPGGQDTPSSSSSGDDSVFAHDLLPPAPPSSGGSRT

Compound `CNc1ccc(NCCc2ccccc2OC)cc1.Cl` [KDS12025, N^1-(2-methoxyphenethyl)-N^4-methylbenzene-1,4-diamine hydrochloride salt] has a remaining binding at 10 µM (RET) of 100%, a remaining binding at 10 µM (DYRK1B) of 67% and a remaining binding at 10 µM (IKK-alpha) of 100%. It also gave a remaining binding at 10 µM (AKT1) of 75%, a remaining binding at 10 µM (CSF1R) of 100% and a remaining binding at 10 µM (TIE2) of 100%. The remaining binding at 10 µM (JNK3) was 68%, the remaining binding at 10 µM (PIM3) was 84% and the remaining binding at 10 µM (VEGFR2) was 100%. For the same compound, the remaining binding at 10 µM (CDK9) was 83%, the remaining binding at 10 µM (BRAF) was 100% and the remaining binding at 10 µM (PIK3CA) was 63%. The remaining binding at 10 µM (PLK1) was 100%, the remaining binding at 10 µM (JNK2) was 91% and the remaining binding at 10 µM (ABL1-phosphorylated) was 100%. For the same compound, the remaining binding at 10 µM (MET) was 82%, the remaining binding at 10 µM [1] was 84% and the remaining binding at 10 µM (BRAF(V600E)) was 100%. It also gave a remaining binding at 10 µM (ALK) of 98%, a remaining binding at 10 µM (p38-beta) of 100% and a remaining binding at 10 µM (ZAP70) of 88%. The remaining binding at 10 µM [2] was 84%, the remaining binding at 10 µM (MEK2) was 91% and the remaining binding at 10 µM (PIM1) was 95%. For the same compound, the remaining binding at 10 µM (MLK1) was 79%, the remaining binding at 10 µM (JNK1) was 75% and the remaining binding at 10 µM (AURKA) was 86%. The remaining binding at 10 µM (KIT(V559D,T670I)) was 94%, the remaining binding at 10 µM (ULK2) was 95% and the remaining binding at 10 µM (DCAMKL1) was 82%. It also gave a remaining binding at 10 µM (ERBB2) of 100%, a remaining binding at 10 µM (FLT3) of 100% and a remaining binding at 10 µM (FAK) of 100%. It also gave a remaining binding at 10 µM (PRKCE) of 100%, a remaining binding at 10 µM (PAK1) of 75% and a remaining binding at 10 µM (ERK1) of 83%. For the same compound, the remaining binding at 10 µM (CDK11) was 73%, the remaining binding at 10 µM (FGFR3) was 91% and the remaining binding at 10 µM [3] was 100%.
